In US11906529B1, “Methods for treatment and diagnosis of endometriosis” (Marshall University Research Corporation, priority 2018, dated 2024):

Tests used:
[1] = tested on: EOOF5 cells; assay: xCELLigence cell index of primary endometrial cells treated with PF and/or drug; format: cell-based, human; conditions: for cell growth (% CI), PF and drug compared to PF alone: EOOF5 cells; for cell growth (% CI), PF and drug compared to PF alone / cell viability and growth in the presence of PF: 1% PF; for cell viability and growth in the presence of PF: human endometrial cells
Description: (§1) Cell treatment. Ishikawa cells (human endometrial cell line) or EOOF5 cells (primary endometrial cells from a patient without endometriosis, gift from Emory University) were cultured in T75 flasks in complete media (DMEM, 10% FCS, 1% P/S). Cells were treated with 1% PF (control and endo patients) in charcoal stripped media containing 0.1% FCS, for 48 hours. A subset of cells were also treated with GSK126 or EPZ-6438 (FIG. 15), at various concentrations for 24 hours. Cells were collected post-treatment for RNA (PCR) and protein analysis (Western blotting).
xCELLigence. EOOF5 cells (primary endometrial cells) was plated at 10,000 cells per well using xCELLigence technology. Plates that have gold electrodes attached to the bottom were utilized. The electrodes produce electrons, which interact with the solution, completing a circuit. As the number of adhered cells in the plate increases, the more this interferes with circuit completion. Cells were treated with either 1% control or endo PF alone or treated with PF for 24 hours before being treated with either 1 μM GSK, 2.5 μM GSK, or 2.5 μM EPZ. Cells were also treated with drug alone. % Cell Impedance (CI) was calculated compared to CF media.

[2] = tested on: EZH2 expression; assay: mRNA analysis on Ishikawa cells treated with PF and/or GSK 126; format: cell-based, human; conditions: depending on order of drug treatment, compared with control or endo PF alone
Description: as §1

[3] = tested on: global trimethylation; conditions: reactivates silenced PRC2 genes; cited from earlier work
[4] = tested on: Ishikawa cells; assay: Inhibitor study using MTT analysis on Ishikawa cells in the presence of PF; format: cell-based, human; conditions: 1% PF
Description: It was more than 1000 fold selective for EZH2 over other histone methyltransferases, including both SET-domain-containing and non-SET domain-containing methyltransferases, as shown schematically in FIG. 6A. […] In this regard, an inhibitor study using MTT analysis was conducted according to the schematic of FIG. 7A. Various doses of GSK126 were tested on Ishikawa cells in the presence of PF: 100 nM, 500 nM, 1 μM, 2.5 μM, 5 μM, and 10 μM in DMSO. Cell growth and viability of cells was evaluated rather than just EZH2 expression. (FIGS. 7B-7C) 1 mM and 0.1 mM solutions of GSK126 were also created from serial dilutions of 10 mM GSK126. […] It was somewhat unclear, however, whether that the effect of the drug as the volume of the vehicle (DMSO) could have impacted the results.
as §1

Row | SMILES | cell growth (% CI), PF and drug compared to PF alone [1] | cell viability and growth in the presence of PF [1] | EZH2 mRNA expression [2] | cell growth (% CI), drug added after PF pretreatment ([1]; 1% PF first for 24 hours followed by drug for 48 hours) | % CI, drug first followed by PF ([1]; GSK first for 24 hours, then 1% PF for another 48 hours) | global H2K37 trimethylation levels [3] | cell viability ([4]; 500 nM, vehicle (DMSO) volume could have impacted the results) | cell growth (proliferation) ([4]; GSK126 100 nM-10 μM in DMSO)
1 | CCN(c1cc(-c2ccc(CN3CCOCC3)cc2)cc(C(=O)NCc2c(C)cc(C)[nH]c2=O)c1C)C1CCOCC1 [EPZ-6438] | decrease in cell growth | concentration dependent decrease | – | – | – | – | – | –
2 | CC[C@H](C)n1cc(C)c2c(C(=O)NCc3c(C)cc(C)[nH]c3=O)cc(-c3ccc(N4CCNCC4)nc3)cc21 [GSK 126] | decrease in cell growth | concentration dependent decrease | bidirectional effect | able to lower the cell growth induced by PF | significant decrease in % CI | inhibit global H2K37 trimethylation levels | dip in viability | very little proliferation
